# “And” between values parts separate entries of the source, which are not always exact repeats. Identical values can stand only once.
# Assay: passive permeability, PAMPA, ADME assay (AID 1508612)
# Conditions: pH 7.4, 30.0 min, 50.0 µM
row,Compound,Papp
1,Cc1cccc(-c2noc([C@@H]3Cc4nc[nH]c4CN3)n2)c1,343 ×10⁻⁶ cm/s
2,O=C(O)c1cnc(-c2ccc(F)cc2)nc1-c1ccncc1,< 1 ×10⁻⁶ cm/s
3,CCOc1ccccc1N(CC(=O)Nc1cc(OC)ccc1OC)S(=O)(=O)c1ccccc1,968 ×10⁻⁶ cm/s
4,CC(C)=CCNc1ncnc2nc[nH]c12,54.1 ×10⁻⁶ cm/s
5,CC(=O)NC1CCN(c2nc(-c3ccc(Br)cc3)cs2)CC1,789 ×10⁻⁶ cm/s
6,CN1CCN(c2ccc(Nc3nn4c(=O)c5ccccc5nc4s3)cc2)CC1,653 ×10⁻⁶ cm/s
7,COc1cc(Cl)c(C)cc1NC(=O)CSc1ncc(S(=O)(=O)c2ccc(C(C)(C)C)cc2)c(=O)[nH]1,16.2 ×10⁻⁶ cm/s
8,NS(=O)(=O)c1ccc(NC(=O)c2cc3ncccn3n2)cc1,82.5 ×10⁻⁶ cm/s
9,C#CC1(O)CCC2C3CCC4=C/C(=N/OCC(=O)NCC(=O)NC(C(=O)O)C(C)C)CC[C@]4(C)C3CC[C@@]21C (some centres not stated),4.52 ×10⁻⁶ cm/s
10,COc1ncccc1-c1cc2[nH]ccc2c(C(=O)NCc2c(C)cc(C)[nH]c2=O)n1,472 ×10⁻⁶ cm/s
11,Nc1ccccc1OCCn1c(CCNC(=O)C2CCCCC2)nc2ccccc21,746 ×10⁻⁶ cm/s
12,Cc1ccc(-c2csc(N3CCC(C(N)=O)CC3)n2)cc1,711 ×10⁻⁶ cm/s
13,COc1cccc(CNc2ccc(S(=O)(=O)Nc3ccc(N4CCNCC4)cc3)cc2)c1O,> 1000 ×10⁻⁶ cm/s
14,Cc1ccc(S(=O)(=O)Nc2cc(Cl)ccc2C(=O)Nc2nc(-c3ccccc3)cs2)cc1,23.4 ×10⁻⁶ cm/s
15,CN=C1CN=C(c2ccc[nH]2)c2cc(Cl)ccc2N1,354 ×10⁻⁶ cm/s and > 1000 ×10⁻⁶ cm/s
16,COc1ccc2c(c1)CCc1c-2n[nH]c1C(=O)N1CCc2c(nc3cc(-c4ccccc4)[nH]n3c2=O)C1,15.8 ×10⁻⁶ cm/s
17,C=C1c2cccc(O)c2C(O)=C2C(=O)[C@]3(O)C(O)=C(C(N)=O)C(=O)[C@@H](N(C)C)[C@@H]3[C@@H](O)[C@H]12,< 1 ×10⁻⁶ cm/s
18,O=C(CCCCn1c(=O)[nH]c2ccsc2c1=O)N1CCN(c2cccc(Cl)c2)CC1,855 ×10⁻⁶ cm/s
19,Cc1cnc(-c2ccccc2C(C)C)nc1NCC1CCN(c2cccnc2)C1 (configuration not stated),> 1000 ×10⁻⁶ cm/s
20,CCOC(=O)N1CCc2c(sc(NCc3ccc(N(C)C)cc3)c2C(=O)Nc2ccc(OC)cc2)C1,58.5 ×10⁻⁶ cm/s
21,CCCN1CNc2c(c(=O)[nH]c(=S)n2Cc2ccc(OC)c(OC)c2)C1,55 ×10⁻⁶ cm/s
22,CCOc1cc(CNc2ccc(O)cc2)ccc1OCc1ccc(Cl)cc1,< 1 ×10⁻⁶ cm/s
23,O=C1CCCC2=C1C1(CCCC1)N=C(Nc1nc3ccccc3o1)N2,294 ×10⁻⁶ cm/s
24,O=[S+]([O-])(Nc1nccs1)c1ccc(NCc2cc(Cl)cc(Br)c2O)cc1,265 ×10⁻⁶ cm/s
25,CC(C)N(CCCNC(=O)Nc1ccc(C(C)(C)C)cc1)C[C@H]1O[C@@H](n2cc(Br)c3c(N)ncnc32)[C@H](O)[C@H]1O,472 ×10⁻⁶ cm/s
26,Cc1ccc(S(=O)(=O)Nc2cnccc2C(=O)Nc2ccc(C#N)cc2)cc1,69.6 ×10⁻⁶ cm/s

row,Compound,Papp
1,COc1ccc2[nH]c(=O)c(-c3noc(-c4ccccc4)n3)cc2c1,760 ×10⁻⁶ cm/s
2,COc1ccc(Nc2ncc(C(=O)Nc3cccc(Cl)c3)c3ccccc23)cc1,67.1 ×10⁻⁶ cm/s
3,COc1cc(NC(=O)c2cc(-c3ccccc3O)no2)cc(OC)c1OC,680 ×10⁻⁶ cm/s
4,Cc1cc(N=Nc2ccc(S(=O)(=O)Nc3ccccn3)cc2)c(N)cc1O,29.4 ×10⁻⁶ cm/s
5,CCCOC(=O)c1ccc(Oc2c(-c3ccc(O)cc3O)n[nH]c2C)cc1,> 1000 ×10⁻⁶ cm/s
6,NC(=O)C1CCN(c2nc(-c3ccccc3Cl)cs2)CC1,517 ×10⁻⁶ cm/s
7,CNC1(c2ccccc2Cl)CCCCC1=O (configuration not stated),> 1000 ×10⁻⁶ cm/s
8,C1CCc2nc3c(nc2C1)CCCC3,257 ×10⁻⁶ cm/s
9,Cc1cnc(-c2ccccc2C(C)(C)C)nc1NCc1ccc(-n2ccnn2)cc1,> 1000 ×10⁻⁶ cm/s
10,COc1ccc(-c2cnc(N3CCC(C(N)=O)CC3)s2)cc1OC,336 ×10⁻⁶ cm/s
11,COc1cccc(NS(=O)(=O)c2ccc(NCc3cccc(OC)c3O)cc2)c1,603 ×10⁻⁶ cm/s
12,CN1CCN(Cc2ccc(-c3ccc(C(C)(C)C#N)cc3)nc2)CC1,> 1000 ×10⁻⁶ cm/s
13,Cc1cn2c(N)c(Cl)cc(C(=O)NCC3CCN(CC(C)C)CC3)c2n1,606 ×10⁻⁶ cm/s
14,CNC(=O)C1=C(C)NC(Nc2nc3ccccc3o2)=NC1c1[nH]ncc1Cl (configuration not stated),17.6 ×10⁻⁶ cm/s
15,O=C(NC(c1ccccc1)c1cc(Cl)c2cccnc2c1O)c1cccnc1 (configuration not stated),51.6 ×10⁻⁶ cm/s
16,CC(=O)Nc1nc(C)c(-c2ccc(Cl)c(S(=O)(=O)NCCO)c2)s1,12.1 ×10⁻⁶ cm/s
17,CCCCN(CC)CCCNC(=O)c1ccc2c(c1)N(Cc1ccc(C)cc1)C(=O)c1ccccc1S2,827 ×10⁻⁶ cm/s
18,Cc1cccc2c1NC(=O)/C2=C/c1cc(Cl)c(O)c(Cl)c1,66.3 ×10⁻⁶ cm/s
19,CNC(=O)c1cc(Oc2ccc(NC(=O)Nc3ccc(Cl)c(C(F)(F)F)c3)c(F)c2)ccn1,< 1 ×10⁻⁶ cm/s
20,Cc1ccnc(N=C(N)N2CCN(c3cccc(C(F)(F)F)c3)CC2)c1,383 ×10⁻⁶ cm/s
21,Cc1ccccc1C(=O)N1CCC(C(=O)N2CCC(N3Cc4ccccc4C3=O)CC2)CC1,50.8 ×10⁻⁶ cm/s
22,Cc1onc(-c2ccc(F)cc2)c1COc1ccc(C(=O)N2CCS(=O)(=O)CC2)cn1,258 ×10⁻⁶ cm/s
23,O=C(NC1CC1)C1CCCN1C(=O)c1cccc(-c2ccccn2)c1 (configuration not stated),11 ×10⁻⁶ cm/s
24,CSc1cc2c(s1)c1cnn(Cc3cccc(N)c3)c(=O)c1n2C,> 1000 ×10⁻⁶ cm/s
25,CCc1ccc(NC(=O)c2[nH]c(C)c(C(C)=O)c2C)cc1S(=O)(=O)Nc1ccc(C#N)cc1,48.1 ×10⁻⁶ cm/s
26,Cc1cc(C)cc(NS(=O)(=O)c2ccc3[nH]cc(C(=O)NCc4ccco4)c(=O)c3c2)c1,9.3 ×10⁻⁶ cm/s

# From PubChem BioAssay AID1508612
